Assay results: PMC9328652, “A novel class of fast‐acting antimalarial agents: Substituted 15‐membered azalides” (British Journal of Pharmacology, 2020)
pIC50: −log10 of the molar value.

How the values were obtained:
[1] = test system: Plasmodium falciparum W2 (chloroquine/pyrimethamine resistant); set-up: method as in Pesic et al. ([2012]); details: 72 h of incubation; ref Pesic et al. ([2012]); cited from earlier work
[2] = test system: Plasmodium falciparum 3D7A (sensitive); set-up: method as in Pesic et al. ([2012]); details: 72 h of incubation; ref Pesic et al. ([2012]); cited from earlier work
human erythrocytes = test: Accumulation and retention in human erythrocytes; type: in vitro ADME; details: after washout
Experimental: The human biological samples were sourced ethically, and their research use was in accord with the terms of the informed consents under an IRB/EC approved protocol. Human erythrocytes were isolated from fresh whole blood. Blood cells were removed from the plasma by centrifugation at 1,650 g and 4°C for 15 min. The pellet was re‐suspended in saline and centrifuged at 3,000 g and at room temperature for 10 min. Supernatant and the upper part of pellet containing leukocytes were discarded. The procedure was repeated three to four times until there were no traces of leukocytes. The quality of erythrocyte isolation was determined on Sysmex SF‐3000 haematological analyser. To measure compound accumulation in cells, erythrocytes (2 × 10^9) were re‐suspended in 3‐ml RPMI 1640 (Gibco, Invitrogen) medium containing 20 μM of tested compounds and incubated at 37°C for 3 or 24 h. Cells were subsequently washed twice in ice‐cold PBS (Sigma) followed by centrifugation at 3,000 g and 4°C for 10 min. The cells were lysed by freezing in 0.5% Triton X‐100 (Sigma) in deionized water. […] Concentrations in lysates were determined by LC–MS/MS. […] To determine intracellular concentration, measured concentration in lysates was normalized to the volume of erythrocyte pellet in samples.

[3] = test system: monocyte derived macrophages (MDM); test: Accumulation and retention in human primary cells, MDM; type: in vitro ADME; details: mean (SD)
Experimental: (§1) Accumulation and retention in human primary cells was determined as described in detail previously (Stepanic et al., [2011]). Briefly, normal human bronchial epithelial cells (NHBE, CC‐2541, Lonza), normal human lung fibroblasts (NHLF, CC‐2512, Lonza), and bronchial smooth muscle cells (BSMC, CC‐2576, Lonza) were cultivated according to the protocols of the suppliers. Human polymorphonuclear cells (PMN) and monocytes from healthy volunteers were isolated from buffy coats. Monocytes were isolated by negative selection on magnetic separator. Monocyte‐derived macrophages (MDM) were obtained by cultivating monocytes with 5 ng·ml^−1 rhGMCSF for 10 days. To determine compound accumulation cells were incubated with 3–10 μM of compounds in their corresponding culture medium for 3 h at 37°C in 5% CO2, washed, and lysed. To measure cellular retention of compounds, after being washed, drug‐loaded cells were incubated in fresh medium for 3 h, washed, and lysed. Compound concentrations were determined by HPLC–MS/MS analysis and expressed as % of azithromycin measurements.

[4] = test system: panel of five bacterial strains; test: Antibacterial screen, summary over panel of five bacterial strains; type: cell-based
Experimental: Antibacterial activity of compounds was determined by a standard broth microdilution method (Clinical Laboratory Standard Institute CLSI, [2009]), except that for Streptococcus strains lysed blood was substituted with 5% horse serum in the testing medium. Azithromycin and chloroquine were used as controls. The activities are expressed as minimum inhibitory concentrations (MICs) in units of μg·ml^−1. The compounds have been tested in at least two and up to five independent experiments generating same or similar results (a range of one to two dilutions between tests was considered acceptable which is in accordance to CLSI acceptable quality control ranges). The organisms tested represented macrolide sensitive Gram‐positive pathogens that are mainly targeted by macrolide antibiotics. Tested streptococci were clinical isolates Streptococcus pneumoniae SP030 and Streptococcus pyogenes 3565 from internal strain collection, and other strains were obtained from ATCC bioresource centre, Staphylococcus aureus ATCC13709, Haemophilus influenzae ATCC49247, and Moraxella catarrhalis ATCC23246. Double dilutions of tested compounds were prepared using TECAN Genesis 150. Bacteria were grown on appropriate agar plates (Becton Dickinson, USA)—Columbia agar with 5% sheep blood for streptococci and M. catarrhalis, Mueller‐Hinton chocolate agar for H. influenzae , and Mueller‐Hinton agar for staphylococci.

[5] = test system: Polymorphonuclear leukocytes (PMN); test: Accumulation and retention in human primary cells, PMN; type: in vitro ADME; details: mean (SD)
Experimental: as §1

[6] = test system: normal human lung fibroblasts (NHLF); test: Accumulation and retention in human primary cells, NHLF; type: in vitro ADME; details: mean (SD)
Experimental: as §1

[7] = test system: normal human bronchial epithelium (NHBE); test: Accumulation and retention in human primary cells, NHBE; type: in vitro ADME; details: mean (SD)
Experimental: as §1

[8] = test system: bronchial smooth muscle cells (BSMC); test: Accumulation and retention in human primary cells, BSMC; type: in vitro ADME; details: mean (SD)
Experimental: as §1

Structure (SMILES): CC[C@H]1OC(=O)[C@H](C)[C@@H](O[C@H]2C[C@@](C)(OC)[C@@H](O)[C@H](C)O2)[C@H](C)[C@@H](O[C@@H]2O[C@H](C)C[C@H](N(C)C)[C@H]2O)[C@](C)(O)C[C@@H](C)CN(C)[C@H](C)[C@@H](O)[C@]1(C)O [Azithromycin, reference compound]
- pIC50 [1]: 5.57
- pIC50 [2]: 4.94
- initially accumulated amount retained in the erythrocytes (human erythrocytes): 10%

Structure (SMILES): CC[C@H]1OC(=O)[C@H](C)[C@@H](O[C@H]2C[C@@](C)(OC)[C@@H](O)[C@H](C)O2)[C@H](C)[C@@H](O[C@@H]2O[C@H](C)C[C@H](N(C)C)[C@H]2O)[C@](C)(O)C[C@@H](C)CN(CCCNc2ccnc3cc(Cl)ccc23)[C@H](C)[C@@H](O)[C@]1(C)O [Compound 1]
- accumulation ([3]; 3 h): 118 (21) % azithromycin
- retention ([3]; 3 h in fresh medium): 94 (0) % azithromycin
- antibacterial activity (in words) [4]: inhibited the growth of whole cell bacteria
- accumulation ([5]; 3 h): 127 (36) % azithromycin
- retention ([5]; 3 h in fresh medium): 101 (19) % azithromycin
- accumulation ([6]; 3 h): 100 (11) % azithromycin
- retention ([6]; 3 h in fresh medium): 85 (3) % azithromycin
- accumulation ([7]; 3 h): 162 (3) % azithromycin
- retention ([7]; 3 h in fresh medium): 123 (11) % azithromycin
- accumulation ([8]; 3 h): 148 (77) % azithromycin
- retention ([8]; 3 h in fresh medium): 118 (19) % azithromycin

Structure (SMILES): CC[C@H]1OC(=O)[C@H](C)[C@@H](O)[C@H](C)[C@@H](O[C@@H]2O[C@H](C)C[C@H](N(C)C)[C@H]2OCCCNc2ccnc3ccccc23)[C@](C)(O)C[C@@H](C)CN[C@H](C)[C@@H](O)[C@]1(C)O [Compound 3]
- antibacterial activity (in words) [4]: no antibacterial activity
